The source of these data is patent US12583855B2, “RET selective inhibitor, preparation method therefor and use thereof” (SHOUYAO HOLDINGS (BEIJING) CO., LTD., priority 2019, dated 2026).

Molecules are shown by their SMILES. Substitutions are numbered along the chain they refer to.

One series deals with KIF5B-RET/HEK293T cells. Kind of series: Cell proliferation activity in KIF5B-RET/HEK293T cells (Cell-Titer Glo). Type of series: cell-based. To be noted: Homo sapiens, HEK-293T, 72 h, read-out: KIFSB-RETV^804M/293T (Cell)IC50.
Another series deals with VEGFR2 (Homo sapiens, UniProt P35968). Kind of series: In vitro enzymatic activity assay on VEGFR2 (HTRF). Type of series: biochemical. To be noted: GST-VEGFR2 0.1 nM, ATP 2.5 μM. In a few lines: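 GST-VEGFR2 (0.1 nM final) with 2.5 μM ATP and 1 μM TK peptide substrate in HEPES pH 7.5 buffer with Mg²⁺/Mn²⁺, 1.5 h at 23 °C. HTRF read-out (665/620 nm ratio) after adding TK antibody and streptavidin-XL665. IC50 from 7-point, 5-fold dilution series.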
Chain of VEGFR2 (P35968 20-1356): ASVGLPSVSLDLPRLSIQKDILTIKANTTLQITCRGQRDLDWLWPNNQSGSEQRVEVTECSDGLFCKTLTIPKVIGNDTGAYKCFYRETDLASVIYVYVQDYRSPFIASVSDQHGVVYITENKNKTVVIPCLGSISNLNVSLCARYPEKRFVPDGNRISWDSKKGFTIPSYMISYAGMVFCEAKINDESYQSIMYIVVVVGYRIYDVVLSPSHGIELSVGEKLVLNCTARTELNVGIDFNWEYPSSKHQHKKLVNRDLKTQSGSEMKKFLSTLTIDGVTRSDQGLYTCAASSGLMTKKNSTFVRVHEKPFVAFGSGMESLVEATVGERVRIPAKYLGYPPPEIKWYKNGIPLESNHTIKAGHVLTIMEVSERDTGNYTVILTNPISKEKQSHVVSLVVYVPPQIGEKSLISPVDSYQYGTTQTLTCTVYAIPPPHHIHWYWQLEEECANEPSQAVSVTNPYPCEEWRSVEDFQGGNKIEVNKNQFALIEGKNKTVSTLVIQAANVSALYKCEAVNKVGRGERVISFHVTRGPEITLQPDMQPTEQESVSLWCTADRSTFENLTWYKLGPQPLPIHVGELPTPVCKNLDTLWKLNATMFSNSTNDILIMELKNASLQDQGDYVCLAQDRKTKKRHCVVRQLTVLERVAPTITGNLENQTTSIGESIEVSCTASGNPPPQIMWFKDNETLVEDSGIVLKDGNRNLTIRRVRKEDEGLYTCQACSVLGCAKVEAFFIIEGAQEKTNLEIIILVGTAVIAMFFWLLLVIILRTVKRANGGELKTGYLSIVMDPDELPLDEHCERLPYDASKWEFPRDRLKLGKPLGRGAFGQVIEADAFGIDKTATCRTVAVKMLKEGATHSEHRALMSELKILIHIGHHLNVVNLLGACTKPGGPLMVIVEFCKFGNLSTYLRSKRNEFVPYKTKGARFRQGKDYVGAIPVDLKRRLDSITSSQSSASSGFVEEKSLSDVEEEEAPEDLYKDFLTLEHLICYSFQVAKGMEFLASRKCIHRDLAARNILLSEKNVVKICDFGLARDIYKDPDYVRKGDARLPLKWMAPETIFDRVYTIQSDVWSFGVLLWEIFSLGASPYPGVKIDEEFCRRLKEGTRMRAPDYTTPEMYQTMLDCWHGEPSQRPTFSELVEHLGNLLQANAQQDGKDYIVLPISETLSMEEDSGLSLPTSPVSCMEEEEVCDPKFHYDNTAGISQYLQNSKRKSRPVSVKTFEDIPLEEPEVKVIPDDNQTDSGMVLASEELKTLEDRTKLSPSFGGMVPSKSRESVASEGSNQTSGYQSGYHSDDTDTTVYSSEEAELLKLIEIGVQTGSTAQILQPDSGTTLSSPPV

For a further series, the system named is TT cells. Kind of series: TT cell proliferation activity (Cell-Titer Glo). In kind it is cell-based. Particulars: TT human thyroid carcinoma cells, 120 h. The protocol:
4. Determination of TT Cell Proliferation Activity of Compounds
TT cells, a human thyroid carcinoma cell line, were cultured in Ham's F-12K medium supplemented with 15% fetal bovine serum (FBS, purchased from Biological Industries, BI) and 1% penicillin/streptomycin double antibody (P/S, purchased from Life Technology) under conditions of 37° C. and 5% CO2. TT cells were plated in a 96-well plate (#3917 purchased from Corning) at a concentration of 5000 cells/195 μL/well the day before compound was detected. The compounds were diluted 3-fold with 100% DMSO starting from 10 mM (10 concentrations in total) after 24 h, and 2 μL of each concentration was diluted in 48 μL of Ham's F-12K medium. 5 μL of each diluted compound was added to the plated Cell suspension, the compound and cells were co-incubated in a cell incubator for 120 h (5 days), after the medium was aspirated. 25 μL of Cell-Titer Glo (G7570, purchased from Promega) reagent was added and re-incubated for 5-10 min. Fluorescence value was then read on Envision and the data were calculated using GraphPad Prism software to obtain IC50 values for inhibition of cell proliferation by the compounds.

For a further series, the target named is T1, RET^WT (Homo sapiens, UniProt P07949).
T1 construct: GST-RET^WT (658-1114 aa, final concentration of 0.5 nM)
T1 sequence (P07949 658-1114): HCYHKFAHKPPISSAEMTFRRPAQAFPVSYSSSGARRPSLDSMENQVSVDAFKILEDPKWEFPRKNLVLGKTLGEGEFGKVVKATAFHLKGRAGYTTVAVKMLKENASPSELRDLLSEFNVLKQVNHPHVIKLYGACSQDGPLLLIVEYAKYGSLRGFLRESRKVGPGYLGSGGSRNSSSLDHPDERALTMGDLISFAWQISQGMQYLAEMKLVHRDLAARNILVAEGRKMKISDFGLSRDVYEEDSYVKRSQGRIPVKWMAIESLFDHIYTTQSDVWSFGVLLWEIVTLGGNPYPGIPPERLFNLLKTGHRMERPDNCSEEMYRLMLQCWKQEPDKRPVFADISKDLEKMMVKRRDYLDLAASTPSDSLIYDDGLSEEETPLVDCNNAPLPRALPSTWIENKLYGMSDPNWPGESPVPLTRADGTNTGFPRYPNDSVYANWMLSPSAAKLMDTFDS
Kind of series: In vitro enzymatic activity assay on RET^WT (HTRF). In kind it is biochemical. Particulars: GST-RET^WT (658-1114 aa) 0.5 nM, ATP 25 μM. In a few lines: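 Reaction run 2 h at 23 °C in HEPES pH 7.5 buffer with Na3VO4, MgCl2, DTT, Tween 20 and BSA; compounds tested at 7 concentrations (5-fold serial dilution in DMSO from 0.2 mM stock). HTRF detection with TK antibody and streptavidin-XL665; IC50 from curve fitting.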
For orientation: In TR-FRET formats the signal depends on donor and acceptor labels being close together.

Another series concerns the target T2, RET^V804M (Homo sapiens, UniProt P07949, V804M).
T2 construct: GST-RET^V804M (658-1114 aa, final concentration of 0.02 nM)
T2 sequence (P07949 658-1114 V804M): T1 sequence (P07949 658-1114) with V147M
Kind of series: In vitro enzymatic activity assay on RET^V804M (HTRF). To be noted: GST-RET^V804M (658-1114 aa) 0.02 nM, ATP 1.5 μM. In kind it is biochemical.

Series [1] in a line: Pharmacokinetic data of compounds in male SD rats. In kind it is in vivo. To be noted: rat, po, intragastric, 5 mg/kg, suspension MC 0.5%, plasma. As for the experimental part: 6. Pharmacokinetic Data of Compounds
Male SD rats (Beijing Vital River Laboratory Animal Technology Co., Ltd) were divided into groups. 3 in each group, received intragastric administration with the suspension of the test sample (5 mg/kg, suspensions MC 0.5%), respectively. Animals were fasted overnight prior to the experiment from 10 h before dosing to 4 h after dosing. Blood was collected 0.25, 0.5, 1, 2, 4, 6, 8, and 24 h after administration, respectively. After isoflurane anesthesia using a small animal anesthesia machine, 0.3 mL of whole blood samples was taken through the fundus venous plexus, placed in a heparin anticoagulant tube, and were centrifuged at 4° C. 4000 rpm for 5 min plasma was transferred to the centrifuge tube, and stored at −80° C. until analysis. Samples in the plasma were extracted using protein precipitation and the extracts were analyzed by LC/MS.

In the case of `CSc1ccc(CN2CCN(c3ccc(-c4cc(-c5cnn(C)c5)cn5ncc(C#N)c45)cn3)CC2)cc1` [Example 17, 6-(1-methyl-1Hpyrazol-4-yl)-4-(6-(4-(4-(methylthio)benzyl)piperazin-1-yl)pyridin-3-yl)pyrazolo[1,5-a]pyridine-3-carbonitrile], the IC50 with KIF5B-RET/HEK293T cells stood at 394 nM; on VEGFR2, 14.1 nM.
With `Cn1cc(-c2cc(-c3ccc(N4CC5CC(C4)N5Cc4cccc(S(C)(=O)=O)c4)nc3)c3c(C#N)cnn3c2)cn1` [Example 20, 6-(1-methyl-1Hpyrazol-4-yl)-4-(6-(6-(3-(methylsulfonyl)benzyl)-3,6-diazabicyclo[3.1.1]heptan-3-yl)pyridin-3-yl)pyrazolo[1,5-a]pyridine-3-carbonitrile], the IC50 in the series on TT cells is 6.58 nM; against RET^WT it was 0.092 nM; in the series with KIF5B-RET/HEK293T cells it was 146 nM; against RET^V804M, 0.237 nM; at VEGFR2, 6.44 nM.
For `CC1(O)CN(c2cc(-c3ccc(N4CC5CC(C4)N5Cc4cccc(S(C)(=O)=O)c4)nc3)c3c(C#N)cnn3c2)C1` [Example 65, 6-(3-hydroxy-3-methylazetidin-1-yl)-4-(6-(6-(3-(methylsulfonyl)benzyl)-3,6-diazabicyclo[3.1.1]heptan-3-yl)pyridin-3-yl)pyrazolo[1,5-a]pyridine-3-carbonitrile] the same measures were 24.1 nM, 0.67 nM, 349 nM, 1.85 nM and 19.4 nM.
For `CSc1cc(CN2C3CC2CN(c2ccc(-c4cc(-c5cnn(C(F)F)c5)cn5ncc(C#N)c45)cn2)C3)ccn1` [Example 72, 6-(1-(difluoromethyl)-1Hpyrazol-4-yl)-4-(6(6-((2-(methylthio)pyridin-4-yl)methyl)-3,6-diazabicyclo[3.1.1]heptan-3-yl)pyridin-3-yl)pyrazolo[1,5-a]pyridine-3-carbonitrile] the same measures were 24.9 nM, 0.147 nM, 387 nM, 0.735 nM and 7.74 nM.
For `CN(C)C(=S)N1CCN(c2ccc(-c3cc(-c4cnn(C)c4)cn4ncc(C#N)c34)cn2)CC1` [Example 8, 4-(5-(3-cyano-6-(1-methyl-1Hpyrazol-4-yl)pyrazolo[1,5-a]pyridine-4-yl)pyridin-2-yl)-N,N-dimethylpiperazin-1-carbothioamide] the same measures were 14 nM, 0.863 nM, 162 nM, 0.908 nM and 9.15 nM.
Turning to `CS(=O)(=O)c1ccc(CN2C3CC2CN(c2ccc(-c4cc(-c5cnn(C(F)F)c5)cn5ncc(C#N)c45)cn2)C3)cc1` [Example 45, 6-(1-difluoromethyl-1Hpyrazol-4-yl)-4-(6-(6-(4-(methylsulfonyl)benzyl)-3,6-diazabicyclo[3.1.1]heptan-3-yl)pyridin-3-yl) pyrazolo[1,5-a] pyridine-3-carbonitrile], the IC50 in the series with TT cells worked out at 22.7 nM. Besides, the IC50 against RET^WT amounted to 0.159 nM. This compound came in with an IC50 at RET^V804M of 0.822 nM. At VEGFR2, this compound came in with an IC50 of 4.96 nM. Further, in series [1], the AUC(0-inf) (commonly total exposure, with the tail of the curve extrapolated) stood at 27500 ng·h/mL; the Cmax – broadly, the highest concentration seen after dosing – is 3560 ng/mL; the Tmax – broadly, the time from dosing to the highest level – was 1.83 h; the half-life (commonly the time needed for the level to fall by half in the phase considered) is 3.21 h.
Take `Cn1cc(-c2cc(-c3ccc(N4CC5CC(C4)N5Cc4ccc(S(C)(=O)=O)cc4)nc3)c3c(C#N)cnn3c2)cn1` [Example 25, 6-(1-methyl-1Hpyrazol-4-yl)-4-(6-(6-(4-(methylsulfonyl)benzyl)-3,6-diazabicyclo[3.1.1]heptan-3-yl)pyridin-3-yl)pyrazolo[1,5-a]pyridine-3-carbonitrile]: the IC50 worked out at 5.96 nM in the series on TT cells, 0.148 nM on RET^WT, 146 nM in the series on KIF5B-RET/HEK293T cells and 0.236 nM against RET^V804M.
In the series on TT cells, `CSc1ccc(CN2CCN(c3ccc(-c4cc(-c5cnn(C)c5)cn5ncc(C#N)c45)cn3)CC2)cn1` [Example 10, 6-(1-methyl-1Hpyrazol-4-yl)-4-(6-(4-((6-(methylthio)pyridin-3-yl)methyl)piperazin-1-yl)pyridin-3-yl)pyrazolo[1,5-a]pyridine-3-carbonitrile] gave an IC50 of 23.8 nM. On VEGFR2, this compound registered an IC50 of 13.9 nM. In addition, in series [1], the AUC(0-inf) is 15300 ng·h/mL, the Cmax turned out to be 1490 ng/mL, the Tmax came out at 4 h and the half-life was 3.38 h.
As for `CSc1ccc(CN2C3CC2CN(c2ccc(-c4cc(-c5cnn(C)c5)cn5ncc(C#N)c45)cn2)C3)nc1` [Example 22, 6-(1-methyl-1Hpyrazol-4-yl)-4-(6-(6-((5-(methylthio)pyridin-2-yl)methyl)-3,6-diazabicyclo[3.1.1]heptan-3-yl)pyridin-3-yl)pyrazolo[1,5-a]pyridine-3-carbonitrile], the IC50 in the series on TT cells was 12.9 nM; against RET^WT it was 0.124 nM; in the series on KIF5B-RET/HEK293T cells, 147 nM; at RET^V804M it was 0.242 nM.
Compound `Cn1cc(-c2cc(-c3ccc(N4CCN(Cc5cccc(S(C)(=O)=O)c5)CC4)nc3)c3c(C#N)cnn3c2)cn1` [Example 15, 6-(1-methyl-1Hpyrazol-4-yl)-4-(6-(4-(3-(methylsulfonyl)benzyl)piperazin-1-yl)pyridin-3-yl)pyrazolo[1,5-a]pyridine-3-carbonitrile] showed an IC50 in the series with TT cells of 17.8 nM. In addition, the IC50 on VEGFR2 stood at 11.8 nM. Moreover, in series [1], the AUC(0-inf) is 6650 ng·h/mL, the concentration peaked (Cmax) at 1330 ng/mL, the Tmax stood at 1.17 h and the half-life is 3.56 h.
In the case of `Cn1cc(-c2cc(-c3ccc(N4CCN(Cc5ccc(S(C)(=O)=O)cc5)CC4)nc3)c3c(C#N)cnn3c2)cn1` [Example 16, 6-(1-methyl-1Hpyrazol-4-yl)-4-(6-(4-(4-(methylsulfonyl)benzyl)piperazin-1-yl)pyridin-3-yl)pyrazolo[1,5-a]pyridine-3-carbonitrile], the IC50 in the series on TT cells is 36.7 nM. The IC50 at VEGFR2 was 8.95 nM. Further, in series [1], the AUC(0-inf) was 42700 ng·h/mL, the concentration peaked (Cmax) at 3790 ng/mL, the Tmax turned out to be 4 h and the half-life was 4.08 h.
